Test results as given in patent US20250281679A1, “BIOMIMETIC COATING FOR ENDOVASCULAR STENT” (INSERM (Institut National de la Santé et de la Recherche …, priority 2021, published 2025).
Bridge positions count the residues as written; N and C are the ends. Square brackets hold non-standard residues; d marks the D form. Primed or numbered codes have the meaning given here. Ends that are not written are not given here. * marks the point of attachment. Lys(N3) = [N-]=[N+]=NCCCC[C@H](N)C(=O)O; Ttds = NCCCOCCOCCOCCCNC(=O)CCC(=O)*; hCys = N[C@@H](CCS)C(=O)O; PEG4′ = not defined here

Experiments:
[1] = tested on: Human aortic endothelial cells; test: Human aortic endothelial cells grown 48 h on bare or peptide-coated nitinol disks; F-actin and CD31 fluorescence image analysis; type: cell-based; conditions: for CD31 expression, Integrated Density / F-actin expression (cellular stress), Integrated Density: HAEC 48 h on coated nitinol disks; for CD31 expression, Integrated Density: anti-CD31 domain 1 antibody, compared to other modified disks and bare controls, FIGS. 2, 4, 5; for ratio between CD31 and F-actin expression: compared to bare metal and disks coated with PDA only, FIG. 6; for CD31/Actin score: Example 2, FIG. 25, compared to bare metal disks or disks coated with PDA alone; for F-actin expression (cellular stress), Integrated Density: phalloidin staining, compared to bare metal, FIGS. 2, 3, 5
Procedure: Nitinol disks are left untouched (bare metal) or coated with a domain 1, domain 2 or domain 1 and 2 CD31 analog peptide. The tested peptide is grafted to the nitinol disk following a polydopamine, DBCO-PEG4-amine and azide CD31 derivative peptide using a sequential dip-coating layering procedure. After this step, all the disks are incubated with Human aortic endothelial cells for 48h. Disks are then rinsed and the cells are fixed in a formalin solution before staining. The staining is fulfilled using phalloidin coupled to AlexaFluor®488 dye (green fluorescence for Actin), DAPI is used for DNA staining and a domain 1 CD31 antibody coupled to APC is used for external Domain 1 staining. The cell adhesion and Actin/CD31 expression was evaluated by image analysis of the surface after staining.
In particular, as per FIG. 2 the bare or coated nitinol disks were placed at the bottom of culture wells. Primary Human Aortic Endothelial Cells (HAEC) were allowed to grow on the disks for a period of 48 h. The disks were thereafter rinsed with phosphate buffered saline, fixed in formalin, and processed for fluorescence microscopy. Disk-adherent cells were immersed in a solution comprising Hoechst 33342 (1 μg/ml, to stain the nuclei), phalloidin coupled to AlexaFluor®488 dye (0.5 μM, to stain F-actin fibers) and a monoclonal antibody directed against CD31 domain 1, coupled to allophycocyanin (to detect the presence and localization of intact CD31 at the cell surface) for 1 hour at 37° C., washed and mounted face down on glass bottom imaging chambers for imaging with an inverted fluorescence microscope.
Surface type is indicated on the Y axis, data are expressed as average±SD (N=6/surface type). Each dot corresponds to a specific surface modification. The F-actin expression relates the cellular stress of the cell in presence of the exogenous material.
In FIG. 4 the surface type is indicated on the Y axis. Each dot corresponds to a specific surface modification. Data are expressed as “Integrated Density” average±SD (N=6/surface type). CD31 expression relates the capacity of endothelial cells to adopt a physiologic phenotype while growing on a given substrate. An important variability is observed in terms of CD31 expression by HAEC according to the surface modification of the nitinol disks.
The effect of different peptides, belonging to the different groups, were tested in batches following the same protocol as in FIG. 6. Different peptides from each group were tested in batches and the effect of individual peptides was repeatedly assessed in separate experiments. Data from all experiments were obtained by computer-assisted analysis of images of the disk side covered with endothelial cells, captured in the blue, green and red channel of an inverted fluorescence microscope. The functional score of the peptides belonging to the different groups was calculated by multiplying the number of cells (as detected by the number of blue, Dapi+ nuclei) for the integrated density of CD31 expression (red signal provided by the binding of a mouse anti-human CD31 monoclonal antibody, clone 9G11, conjugated allophycocyanin) and their product being divided for the integrated density of the F-actin polymerization (Phalloidin coupled to a green fluorochrome).
The same protocol as in Example 1 was followed, using peptides according to the invention (SP547, SP548 SP745, SP1374, SP1072, SP1070, SP1071, SP1379 and SP1383) as defined above and the prior art peptide P8RI of sequence KWPALFVR (SEQ ID NO: 52).
The “CD31/Actin” score, resulting from the integrated density of CD31 immunostaining signal divided by the signal of phalloidin, which binds to the polymerized F-actin of the cytoskeleton, has been used to identify the physiological/non-stressed character of the arterial endothelial cells growing onto the surface of experimental disks placed at the bottom of culture wells. […]

endothelial cells = conditions: immobilized peptide, cited from earlier work
[2] = immobilized peptide, in vivo; cited from earlier work
CD31 = conditions: soluble peptide; cited from earlier work

Ac-K(N3)-(Ttds)4-PRhCTLDKKEAIQGGIVRVNhCSVPEEK-CONH2 ({Ac-Lys(N3)-Ttds-Ttds-Ttds-Ttds}-PR[hCys]TLDKKEAIQGGIVRVN[hCys]SVPEEK-NH2; disulfide 3-20) [SP1380]
CD31 expression, Integrated Density [1]: evident positive effect in terms of CD31 expression | ratio between CD31 and F-actin expression [1]: higher CD31/actin ratio

Ac-K(N3)-GGSGGSGG-YKDDVLFYNISSMKST-NH2 (Ac-[Lys(N3)]GGSGGSGGYKDDVLFYNISSMKST-NH2; SMILES CC[C@H](C)[C@H](NC(=O)[C@H](CC(N)=O)NC(=O)[C@H](Cc1ccc(O)cc1)NC(=O)[C@H](Cc1ccccc1)NC(=O)[C@H](CC(C)C)NC(=O)[C@@H](NC(=O)[C@H](CC(=O)O)NC(=O)[C@H](CC(=O)O)NC(=O)[C@H](CCCCN)NC(=O)[C@H](Cc1ccc(O)cc1)NC(=O)CNC(=O)CNC(=O)[C@H](CO)NC(=O)CNC(=O)CNC(=O)[C@H](CO)NC(=O)CNC(=O)CNC(=O)[C@H](CCCCN=[N+]=[N-])NC(C)=O)C(C)C)C(=O)N[C@@H](CO)C(=O)N[C@@H](CO)C(=O)N[C@@H](CCSC)C(=O)N[C@@H](CCCCN)C(=O)N[C@@H](CO)C(=O)N[C@H](C(N)=O)[C@@H](C)O) [SP547]
CD31/Actin score [1]: equivalent to those of sections coated by other peptides according to the invention

Ac-K(N3)-PEG4-PRVTLDKKEAIQGGIVRVNSSVPEEK-CONH2 (Ac-[Lys(N3)][PEG4′]PRVTLDKKEAIQGGIVRVNSSVPEEK-NH2) [SP1071]
CD31/Actin score [1]: significantly higher

Ac-YKDDVLFYNISSMKST-GGSGGSGG-K(N3)-NH2 (Ac-YKDDVLFYNISSMKSTGGSGGSGG[Lys(N3)]-NH2; SMILES CC[C@H](C)[C@H](NC(=O)[C@H](CC(N)=O)NC(=O)[C@H](Cc1ccc(O)cc1)NC(=O)[C@H](Cc1ccccc1)NC(=O)[C@H](CC(C)C)NC(=O)[C@@H](NC(=O)[C@H](CC(=O)O)NC(=O)[C@H](CC(=O)O)NC(=O)[C@H](CCCCN)NC(=O)[C@H](Cc1ccc(O)cc1)NC(C)=O)C(C)C)C(=O)N[C@@H](CO)C(=O)N[C@@H](CO)C(=O)N[C@@H](CCSC)C(=O)N[C@@H](CCCCN)C(=O)N[C@@H](CO)C(=O)N[C@H](C(=O)NCC(=O)NCC(=O)N[C@@H](CO)C(=O)NCC(=O)NCC(=O)N[C@@H](CO)C(=O)NCC(=O)NCC(=O)N[C@@H](CCCCN=[N+]=[N-])C(N)=O)[C@@H](C)O) [SP548]
CD31/Actin score [1]: equivalent to those of sections coated by other peptides according to the invention

KWPALFVR [P8RI, prior art CD31-mimetic octa-peptide]
adhesion of endothelial cells (endothelial cells; in vitro): increases the adhesion of endothelial cells in vitro | blood element reaction (endothelial cells): reduces the blood element reaction | integration of endovascular devices [2]: enhances the integration of endovascular devices in vivo | action on CD31 (CD31): acts like a CD31 agonist

RDQNFVILEFP-PEG4-K(N3)-NH2 [SP1070]
CD31/Actin score [1]: significantly higher | F-actin expression (cellular stress), Integrated Density [1]: does not show an influence on the cellular stress

SHQMLFYKDDVLFYNISSS-GGSGGSGG-K(N3)-CONH2 (SHQMLFYKDDVLFYNISSSGGSGGSGG[Lys(N3)]-NH2; N-terminus assumed; SMILES CC[C@H](C)[C@H](NC(=O)[C@H](CC(N)=O)NC(=O)[C@H](Cc1ccc(O)cc1)NC(=O)[C@H](Cc1ccccc1)NC(=O)[C@H](CC(C)C)NC(=O)[C@@H](NC(=O)[C@H](CC(=O)O)NC(=O)[C@H](CC(=O)O)NC(=O)[C@H](CCCCN)NC(=O)[C@H](Cc1ccc(O)cc1)NC(=O)[C@H](Cc1ccccc1)NC(=O)[C@H](CC(C)C)NC(=O)[C@H](CCSC)NC(=O)[C@H](CCC(N)=O)NC(=O)[C@H](Cc1c[nH]cn1)NC(=O)[C@@H](N)CO)C(C)C)C(=O)N[C@@H](CO)C(=O)N[C@@H](CO)C(=O)N[C@@H](CO)C(=O)NCC(=O)NCC(=O)N[C@@H](CO)C(=O)NCC(=O)NCC(=O)N[C@@H](CO)C(=O)NCC(=O)NCC(=O)N[C@@H](CCCCN=[N+]=[N-])C(N)=O) [SP745]
CD31/Actin score [1]: significantly higher

[Ac-K(N3)-(Ttds)4-PRVTLDKKEAIQGGIVRVNSSVPEEK-Ttds-K^#(CH2CO)-CONH2]-[QHQMLFYhC^#DDVLFYNISSMK-CONH2] (chain 1 {Ac-Lys(N3)-Ttds-Ttds-Ttds-Ttds}-PRVTLDKKEAIQGGIVRVNSSVPEEK-{Ttds-K(CH2CO)-NH2}; chain 2 QHQMLFY[hCys]DDVLFYNISSMK-NH2; also: thioether at chain B 8 to a chain's C-terminus) [SP1383]
CD31/Actin score [1]: significantly higher

[^#CH2CONH2GTYKSTVIVNNKEKTTAEYQ-(Ttds)4-K(N3)-NH2]-[QHQMLFYhC^#DDVLFYNISSMK-CONH2] (chain 1 GTYKSTVIVNNKEKTTAEYQ-{Ttds-Ttds-Ttds-Ttds-Lys(N3)-NH2}; chain 2 QHQMLFY[hCys]DDVLFYNISSMK-NH2; not fully specified (N-terminus); also: thioether at chain B 8 to a chain's N-terminus) [SP1379]
CD31/Actin score [1]: significantly higher

hCHQMLFYKDDVLFYNISShCK-Ttds-Ttds-Ttds-Ttds-K(N3)-CONH2 ([hCys]HQMLFYKDDVLFYNISS[hCys]K-{Ttds-Ttds-Ttds-Ttds-Lys(N3)-NH2}; cysteine pairing not given here) [SP1374]
CD31/Actin score [1]: significantly higher | CD31 expression, Integrated Density ([1]; listed as 1374): evident positive effect in terms of CD31 expression | CD31 expression, Integrated Density ([1]; listed as SP 1374): consistent functional endothelial phenotype (high CD31 expression) | F-actin expression (cellular stress), Integrated Density [1]: low cellular stress (low actin expression) | ratio between CD31 and F-actin expression [1]: higher CD31/actin ratio
